We go through 27 compounds from ChEMBL document CHEMBL3351946, “Design and synthesis of potent antitumor water-soluble phenyl N-mustard-benzenealkylamide conjugates via a bioisostere approach” (Eur J Med Chem, 2014).

In test [1] the test system is CCRF-CEM. In words: Cytotoxicity against human CCRF-CEM cells assessed as growth inhibition after 72 hrs by Alamar Blue assay. It is filed as functional, cell-based. A general note: Alamar Blue is a resazurin reagent that responds to reducing activity.
For test [2], the system named is CCRF-CEM. Briefly: Cytotoxicity against vinblastine-resistant human CCRF-CEM cells assessed as growth inhibition after 72 hrs by Alamar Blue assay. The format is functional, cell-based.
Test [3] relates to CCRF-CEM. In words: Resistance factor, ratio of IC50 for vinblastine-resistant human CCRF-CEM cells to IC50 for human CCRF-CEM cells. It is filed as functional.
Test [4] in a line: Cytotoxicity against human HCT116 cells assessed as growth inhibition after 72 hrs by Alamar Blue assay. The format is functional, cell-based. The note with it: HCT-116, 72 h.
Test [5] in a line: Cytotoxicity against human PC3 cells assessed as growth inhibition after 72 hrs by Alamar Blue assay. The format is functional, cell-based. The following applies: PC-3, 72 h.
The nature of test [6]: Cytotoxicity against human H1299 cells assessed as growth inhibition after 72 hrs by Alamar Blue assay. The format is functional, cell-based. The following applies: NCI-H1299, 72 h.
Test [7] is described as follows: Cytotoxicity against human H460 cells assessed as growth inhibition after 72 hrs by Alamar Blue assay. The following applies: NCI-H460, 72 h. It is filed as functional, cell-based.
The nature of test [8]: Cytotoxicity against human DLD1 cells assessed as growth inhibition after 72 hrs by Alamar Blue assay. The format is functional, cell-based. The note with it: DLD-1, 72 h.
The subject of test [9] is HT-29. Briefly: Cytotoxicity against human HT-29 cells assessed as growth inhibition after 72 hrs by Alamar Blue assay. The format is functional, cell-based. The note with it: HT-29, 72 h.
A short description of test [10]: Cytotoxicity against human H3347 cells assessed as growth inhibition after 72 hrs by Alamar Blue assay. It is filed as functional, cell-based. The note with it: H3347, 72 h.

Take `O=C(CCN1CCC(N2CCCCC2)CC1)Nc1cccc(NC(=O)Nc2ccc(N(CCCl)CCCl)cc2)c1`: the IC50 (as a rule, the concentration needed to halve the response being measured) in test [1] was found to be 1.63 µM; in test [2] it was 1.53 µM; in [4], 15.7 µM; in [5] it was 22.1 µM; in test [6] it was 11 µM; in test [7] it was 14.2 µM. Also, the “Ratio IC50” value in test [3] was 0.94.
On to `CCN(CC)CC(=O)Nc1cccc(NC(=O)Nc2ccc(N(CCCl)CCCl)cc2)c1`, for which the IC50 in test [1] amounted to 2.01 µM; in [2], 1.38 µM; in test [4], 4.62 µM; in test [5] it was 13 µM; in [6] it was 11.7 µM; in test [7], 5.67 µM. Besides, the “Ratio IC50” value in test [3] is reported as 0.69.
Turning to `O=C(CCN1CCCC1)Nc1ccc(NC(=O)Nc2ccc(N(CCCl)CCCl)cc2)cc1`, the IC50 in [1] amounted to 0.28 µM; in test [2], 17.1 µM; in test [8], 13.9 µM; in test [9] it was 14.1 µM; in [4], 2.87 µM; in test [10] it was 3.68 µM. The IC50 in [5] came to 3.48 µM; in test [6], 6.43 µM; in [7], 1.03 µM. Moreover, the “Ratio IC50” value in test [3] worked out at 61.14.
In the case of `CN(C)CC(=O)Nc1cccc(NC(=O)Nc2ccc(N(CCCl)CCCl)cc2)c1`, the IC50 in test [1] is 0.78 µM; in [2], 2.7 µM; in [4] it was 9.56 µM; in test [5] it was 19 µM; in test [6] it was 10.6 µM; in test [7], 8.74 µM. In addition, the “Ratio IC50” value in [3] is 3.46.
With `O=C(CN1CCCCC1)Nc1cccc(NC(=O)Nc2ccc(N(CCCl)CCCl)cc2)c1`, the IC50 in test [1] stood at 1.35 µM; in [2], 1.33 µM; in [4], 7.5 µM; in test [5] it was 10.1 µM; in test [6] it was 8.55 µM; in test [7] it was 5.62 µM. The “Ratio IC50” value in test [3] stood at 0.99.
As to `O=C(CCN1CCOCC1)Nc1ccc(NC(=O)Nc2ccc(N(CCCl)CCCl)cc2)cc1`, the IC50 came to 1.06 µM in test [1]; 23.4 µM in test [2]; 7.02 µM in test [4]; 9.74 µM in test [5]; 15.2 µM in [6]; 3.95 µM in test [7]. Also, the “Ratio IC50” value in test [3] was found to be 22.09.
As to `O=C(CN1CCCC1)Nc1cccc(NC(=O)Nc2ccc(N(CCCl)CCCl)cc2)c1`, the IC50 in [1] stood at 3.41 µM; in [2], 0.97 µM; in [4], 5.41 µM; in test [5] it was 12.8 µM; in test [6], 9.36 µM; in [7] it was 6.55 µM. Besides, the “Ratio IC50” value in test [3] was 0.28.
As for `O=C(Nc1ccc(C(=O)NCCN2CCCCC2)cc1)Nc1ccc(N(CCCl)CCCl)cc1`, the IC50 in [1] worked out at 0.43 µM; in [2], 48.8 µM; in test [4], 5.25 µM; in test [5], 4.25 µM; in [6], 7.58 µM; in [7] it was 9.44 µM. Besides, the “Ratio IC50” value in test [3] was found to be 113.58.
`O=C(CCN1CCOCC1)Nc1cccc(NC(=O)Nc2ccc(N(CCCl)CCCl)cc2)c1`: the IC50 in test [1] is 3.1 µM; in test [2] it was 4.84 µM; in test [4], 16.8 µM; in [5], 35.5 µM; in test [6] it was 15.9 µM; in [7], 38.5 µM. Also, in [3], the “Ratio IC50” value is listed as 1.56.
In the case of `O=C(CN1CCOCC1)Nc1cccc(NC(=O)Nc2ccc(N(CCCl)CCCl)cc2)c1`, the concentration for half-maximal inhibition (IC50) in test [1] was found to be 3.87 µM; in test [2], 1.32 µM; in [4], 13 µM; in [5], 35.8 µM; in test [6] it was 26.4 µM; in test [7] it was 19.5 µM. Further, in [3], the “Ratio IC50” value amounted to 0.34.
Regarding `O=C(Nc1ccc(C(=O)NCCN2CCCC2)cc1)Nc1ccc(N(CCCl)CCCl)cc1`, the IC50 in [1] was 0.56 µM; in [2], 133 µM; in [4], 6.48 µM; in test [5] it was 4.53 µM; in test [6], 18.5 µM; in test [7] it was 17.8 µM. In addition, in [3], the “Ratio IC50” value came to 237.2.
On to `CC[C@]1(O)C[C@H]2CN(CCc3c([nH]c4ccccc34)[C@@](C(=O)OC)(c3cc4c(cc3OC)N(C=O)[C@H]3[C@@](O)(C(=O)OC)[C@H](OC(C)=O)[C@]5(CC)C=CCN6CC[C@]43[C@@H]65)C2)C1` [VINCRISTINE], for which the IC50 in [1] worked out at 0.00232 µM; in test [2], 2.13 µM.
For the compound `CCN(CC)CCC(=O)Nc1cccc(NC(=O)Nc2ccc(N(CCCl)CCCl)cc2)c1`, the IC50 in test [1] amounted to 0.86 µM; in [2], 13 µM; in test [4], 3.21 µM; in test [5], 13 µM; in [6] it was 5.77 µM; in test [7], 6.79 µM. Moreover, in [3], the “Ratio IC50” value was 15.62.
For the compound `O=c1[nH]cc(F)c(=O)[nH]1` [FLUOROURACIL], the values for the IC50 in test [8], in test [9] and in [10] were 29.1 µM, 24.9 µM and 11.6 µM, respectively.
On to `CN(C)CCNC(=O)c1ccc(NC(=O)Nc2ccc(N(CCCl)CCCl)cc2)cc1`, for which the IC50 in [1] stood at 0.57 µM; in test [2], 106 µM; in test [4], 5.64 µM; in [5] it was 6.25 µM; in [6], 32 µM; in [7] it was 31.6 µM. Also, the “Ratio IC50” value in test [3] is 186.47.
Regarding `O=C(Nc1ccc(N(CCCl)CCCl)cc1)Nc1cccc(C(=O)NCCN2CCCC2)c1`, the IC50 was 0.53 µM in test [1]; 126 µM in [2]; 4.9 µM in test [4]; 6.54 µM in [5]; 18.7 µM in test [6]; 34.1 µM in [7]. Also, the “Ratio IC50” value in test [3] is listed as 238.42.
For `O=C(CCN1CCCCC1)Nc1ccc(NC(=O)Nc2ccc(N(CCCl)CCCl)cc2)cc1`, the IC50 in test [2] amounted to 6.2 µM; in [8], 6.5 µM; in test [9], 12.3 µM; in test [4], 2.41 µM; in [10] it was 2.41 µM; in test [5] it was 2.28 µM. The IC50 in test [6] was 3.03 µM; in [7], 1.58 µM.
In the case of `CC[C@]1(O)C[C@@H]2CN(CCc3c([nH]c4ccccc34)[C@@](C(=O)OC)(c3cc4c(cc3OC)N(C)[C@H]3[C@@](O)(C(=O)OC)[C@H](OC(C)=O)[C@]5(CC)C=CCN6CC[C@]43[C@@H]65)C2)C1` [VINBLASTINE], the IC50 in test [1] was 0.0013 µM; in test [2] it was 0.67 µM.
Consider `O=C(CCN1CCCC1)Nc1cccc(NC(=O)Nc2ccc(N(CCCl)CCCl)cc2)c1`, for which the IC50 in test [1] is 0.67 µM; in test [2], 27.1 µM; in test [4], 5.11 µM; in [5], 10.3 µM; in test [6], 4.33 µM; in test [7], 9.84 µM. Besides, in [3], the “Ratio IC50” value was 40.42.
On to `O=C(CCN1CCCCC1)Nc1cccc(NC(=O)Nc2ccc(N(CCCl)CCCl)cc2)c1`, for which the IC50 in [1] was 0.39 µM; in test [2] it was 6.01 µM; in test [4] it was 3.51 µM; in test [5] it was 5.73 µM; in test [6], 4.63 µM; in [7] it was 7.88 µM. In addition, the “Ratio IC50” value in test [3] came to 15.41.
As to `O=C(CN1CCOCC1)Nc1ccc(NC(=O)Nc2ccc(N(CCCl)CCCl)cc2)cc1`, the IC50 in test [1] turned out to be 1.13 µM; in [2], 18.4 µM; in [4] it was 6.67 µM; in [5] it was 16 µM; in test [6], 18.6 µM; in test [7] it was 4.74 µM. Besides, in test [3], the “Ratio IC50” value was 16.27.
Regarding `O=C(Nc1ccc(N(CCCl)CCCl)cc1)Nc1cccc(C(=O)NCCN2CCCCC2)c1`, the IC50 in test [1] was determined as 0.57 µM; in test [2], 28.4 µM; in [4], 5.47 µM; in [5], 4.54 µM; in [6], 10.3 µM; in test [7], 12.8 µM. In [3], the “Ratio IC50” value was 49.91.
Consider `CN(C)CCC(=O)Nc1cccc(NC(=O)Nc2ccc(N(CCCl)CCCl)cc2)c1`, for which the IC50 in [1] amounted to 0.52 µM; in [2], 14.4 µM; in [4], 3.28 µM; in [5], 13.5 µM; in test [6], 8.99 µM; in test [7] it was 16.8 µM. Besides, the “Ratio IC50” value in test [3] is 27.67.
As for `O=C(CN1CCC(N2CCCCC2)CC1)Nc1cccc(NC(=O)Nc2ccc(N(CCCl)CCCl)cc2)c1`, the IC50 in [1] came out at 30.4 µM; in [2], 1.81 µM; in test [4], 6.15 µM; in test [5], 25.9 µM; in [6], 12.8 µM; in test [7], 12.3 µM. Also, the “Ratio IC50” value in test [3] was found to be 0.06.
Consider `O=C(CN1CCC(N2CCCCC2)CC1)Nc1ccc(NC(=O)Nc2ccc(N(CCCl)CCCl)cc2)cc1`, for which the IC50 in test [1] stood at 1.14 µM; in test [2], 52.2 µM; in [4], 4.24 µM; in [5] it was 7.24 µM; in test [6] it was 14.4 µM; in test [7] it was 14.9 µM. In test [3], the “Ratio IC50” value is recorded as 45.8.
Take `O=C(CCN1CCC(N2CCCCC2)CC1)Nc1ccc(NC(=O)Nc2ccc(N(CCCl)CCCl)cc2)cc1`: the IC50 in [1] was 0.72 µM; in test [2], 120 µM; in test [4] it was 11.1 µM; in test [5] it was 30 µM; in test [6], 36 µM; in test [7] it was 14.5 µM. Besides, in test [3], the “Ratio IC50” value was 166.17.
On to `CN(C)CCC(=O)Nc1ccc(NC(=O)Nc2ccc(N(CCCl)CCCl)cc2)cc1`, for which the half-inhibitory concentration (IC50) in test [8] is 9.84 µM; in test [9], 23.6 µM; in [10], 2.86 µM.
